Measurements: paper PMC3214022, “Plasmodium falciparum Parasites Are Killed by a Transition State Analogue of Purine Nucleoside Phosphorylase in a Primate Animal Model” (PLoS ONE, 2011)

Test: Weights, CBC, blood chemistry and signs of toxicity, Table S1 sheet PD-2 (infected Aotus, twice a day for seven days)
Format: in vivo, Aotus lemurinus lemurinus
Conditions: oral 10 mg/kg twice a day/7 days
Protocol: Laboratory bred Aotus lemurinus lemurinus monkeys (0.75–0.89 kg) were maintained as described. […] Blood samples were collected before the treatment started (t = 0), 0.05 h, 0.5 h, 1 h, 2 h, 6 h, 24 h, 48 h, and 6, 12 and 18 days after the first dose from each monkey and processed as described below. Pharmacokinetic parameters were calculated using PKSolver. For efficacy studies, Aotus monkeys were inoculated intravenously with 5×10^6 parasites of the FVO strain of P. falciparum in an approved treatment protocol. […] Parasitaemia was determined by Giemsa-stained thick blood smears prepared daily from the marginal ear vein [41]. Blood samples were collected from each monkey and transferred to tubes containing lithium heparin, centrifuged and both plasma and blood cells were frozen at −80 °C until analysis. Animals received a physical examination and blood chemistry profiles were monitored after treatment as described previously. Any monkey not responding appropriately to treatment was cured of its infection with mefloquine (40 mg kg^−1). […] The day of clearance is defined as the first of three consecutive days in which the thick blood films are parasite negative. The day of recrudescence is the first of three consecutive days of positive thick blood films after a period of clearance. Suppression is defined as a transient decrease in the parasite count post-treatment without clearance.

Nc1nc2c(CN3CC(O)C(CO)C3)c[nH]c2c(=O)[nH]1 (stereo not shown) [BCX4945, 4′-deaza-1′-aza-2′-deoxy-1′-(9-methylene)-Immucillin-G]
WEIGHT (26027 Male (ITM3), day 15): 890 g | Blood Urea Nitrogen (26027 Male (ITM3), day 18): 20.6 mg/dL | Creatine (26027 Male (ITM3), day 18): 0.5 mg/dL | Erythrocytes (26027 Male (ITM3), day 18): 4.74e+06 µL⁻¹ | Glutamate Pyruvate Transaminase (26027 Male (ITM3), day 18): 27.5 U/L | Granulocytes (%) (26027 Male (ITM3), day 18): 37% | Granulocytes (x 103/ul) (26027 Male (ITM3), day 18): 3 x 103/ul | Hematocrit (26027 Male (ITM3), day 18): 39.9% | Hemoglobin (26027 Male (ITM3), day 18): 14.1 g/dL | Leucocytes (26027 Male (ITM3), day 18): 8100 µL⁻¹ | Lymphocytes (%) (26027 Male (ITM3), day 18): 58.1% | Lymphocytes (x 103/ul) (26027 Male (ITM3), day 18): 4.7 x 103/ul | Mean Corpuscular Hemoglobin (26027 Male (ITM3), day 18): 29.9 pg | Mean Corpuscular Volume (26027 Male (ITM3), day 18): 84.3 fL | Mean Hemoglobin Content (26027 Male (ITM3), day 18): 35.4 g/dL | Mean Platelet Volume (26027 Male (ITM3), day 18): 11.7 fL | Monocytes (%) (26027 Male (ITM3), day 18): 4.9% | Monocytes (x 103/ul) (26027 Male (ITM3), day 18): 0.4 x 103/ul | Platelets (26027 Male (ITM3), day 18): 208000 µL⁻¹ | Red Cell Distribution Width (26027 Male (ITM3), day 18): 17.7% | Reticulocytes (26027 Male (ITM3), day 18): 1.9% | WEIGHT (26027 Male (ITM3), day 18): 900 g | Erythrocytes (26027 Male (ITM3), day 25): 4.04e+06 µL⁻¹ | Granulocytes (%) (26027 Male (ITM3), day 25): 17.2% | Granulocytes (x 103/ul) (26027 Male (ITM3), day 25): 2.5 x 103/ul | Hematocrit (26027 Male (ITM3), day 25): 35.7% | Hemoglobin (26027 Male (ITM3), day 25): 12.2 g/dL | Leucocytes (26027 Male (ITM3), day 25): 14500 µL⁻¹ | Lymphocytes (%) (26027 Male (ITM3), day 25): 74.8% | Lymphocytes (x 103/ul) (26027 Male (ITM3), day 25): 10.8 x 103/ul | Mean Corpuscular Hemoglobin (26027 Male (ITM3), day 25): 30.1 pg | Mean Corpuscular Volume (26027 Male (ITM3), day 25): 88.4 fL | Mean Hemoglobin Content (26027 Male (ITM3), day 25): 34 g/dL | Mean Platelet Volume (26027 Male (ITM3), day 25): 13.3 fL | Monocytes (%) (26027 Male (ITM3), day 25): 8% | Monocytes (x 103/ul) (26027 Male (ITM3), day 25): 1.2 x 103/ul | Platelets (26027 Male (ITM3), day 25): 118000 µL⁻¹ | Red Cell Distribution Width (26027 Male (ITM3), day 25): 17.3% | Reticulocytes (26027 Male (ITM3), day 25): 3.1% | WEIGHT (26027 Male (ITM3), day 25): 888 g | Blood Urea Nitrogen (26027 Male (ITM3), day -10): 18.35 mg/dL | Creatine (26027 Male (ITM3), day -10): 0.5 mg/dL | Erythrocytes (26027 Male (ITM3), day -10): 5.73e+06 µL⁻¹ | Glutamate Pyruvate Transaminase (26027 Male (ITM3), day -10): 23.9 U/L | Granulocytes (%) (26027 Male (ITM3), day -10): 15.9% | Granulocytes (x 103/ul) (26027 Male (ITM3), day -10): 1.6 x 103/ul | Hematocrit (26027 Male (ITM3), day -10): 46.1% | Hemoglobin (26027 Male (ITM3), day -10): 17.0 g/dL | Leucocytes (26027 Male (ITM3), day -10): 10200 µL⁻¹ | Lymphocytes (%) (26027 Male (ITM3), day -10): 78% | Lymphocytes (x 103/ul) (26027 Male (ITM3), day -10): 8 x 103/ul | Mean Corpuscular Hemoglobin (26027 Male (ITM3), day -10): 29.6 pg | Mean Corpuscular Volume (26027 Male (ITM3), day -10): 80.5 fL | Mean Hemoglobin Content (26027 Male (ITM3), day -10): 36.8 g/dL | Mean Platelet Volume (26027 Male (ITM3), day -10): 11.9 fL | Monocytes (%) (26027 Male (ITM3), day -10): 6.1% | Monocytes (x 103/ul) (26027 Male (ITM3), day -10): 0.6 x 103/ul | Platelets (26027 Male (ITM3), day -10): 253000 µL⁻¹ | Red Cell Distribution Width (26027 Male (ITM3), day -10): 11.7% | Reticulocytes (26027 Male (ITM3), day -10): 1.1% | WEIGHT (26027 Male (ITM3), day -10): 895 g | Blood Urea Nitrogen (26047 Female (ITM1), day 8): 18.65 mg/dL | Creatine (26047 Female (ITM1), day 8): 0.539 mg/dL | Erythrocytes (26047 Female (ITM1), day 8): 4.63e+06 µL⁻¹ | Glutamate Pyruvate Transaminase (26047 Female (ITM1), day 8): 13.2 U/L | Granulocytes (%) (26047 Female (ITM1), day 8): 10% | Granulocytes (x 103/ul) (26047 Female (ITM1), day 8): 1.3 x 103/ul | Hematocrit (26047 Female (ITM1), day 8): 36.7% | Hemoglobin (26047 Female (ITM1), day 8): 13.2 g/dL | Leucocytes (26047 Female (ITM1), day 8): 12900 µL⁻¹ | Lymphocytes (%) (26047 Female (ITM1), day 8): 74.5% | Lymphocytes (x 103/ul) (26047 Female (ITM1), day 8): 9.6 x 103/ul | Mean Corpuscular Hemoglobin (26047 Female (ITM1), day 8): 28.5 pg | Mean Corpuscular Volume (26047 Female (ITM1), day 8): 79.3 fL | Mean Hemoglobin Content (26047 Female (ITM1), day 8): 35.9 g/dL | Mean Platelet Volume (26047 Female (ITM1), day 8): 9.7 fL | Monocytes (%) (26047 Female (ITM1), day 8): 15.5% | Monocytes (x 103/ul) (26047 Female (ITM1), day 8): 2 x 103/ul | Platelets (26047 Female (ITM1), day 8): 297000 µL⁻¹ | Red Cell Distribution Width (26047 Female (ITM1), day 8): 12.5% | Reticulocytes (26047 Female (ITM1), day 8): 2.8% | WEIGHT (26047 Female (ITM1), day 8): 814 g | Blood Urea Nitrogen (26047 Female (ITM1), day 12): 10.55 mg/dL | Creatine (26047 Female (ITM1), day 12): 0.5 mg/dL | Erythrocytes (26047 Female (ITM1), day 12): 4.11e+06 µL⁻¹ | Glutamate Pyruvate Transaminase (26047 Female (ITM1), day 12): 27.3 U/L | Granulocytes (%) (26047 Female (ITM1), day 12): 21.3% | Granulocytes (x 103/ul) (26047 Female (ITM1), day 12): 3.6 x 103/ul | Hematocrit (26047 Female (ITM1), day 12): 32.7% | Hemoglobin (26047 Female (ITM1), day 12): 11.6 g/dL | Leucocytes (26047 Female (ITM1), day 12): 16800 µL⁻¹
